Measured values from patent US10174067B2, “Type of cytidine derivative and application thereof” (priority 2014, dated 2019).
Marks after values point to notes of the source that are not given here.

Tests used:
[1] = Summary of the method: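 Test compounds formulated in ethanol:Cremophor EL:saline (5:5:90), vehicle alone as control, in HCT-116 subcutaneous xenografts in female Balb/c nudes (6/group, start 60–150 mm^3). Weight measured three times weekly, tumour weight at end; unpaired t-test on Mean±SEM data.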
[2] = tested on: ICR mice; assay: in vivo; conditions: female ICR mice; single-dose ip
Summary of the method: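 MTD, the dose without mortality, body-weight loss over 10% from Day 0 or marked adverse signs, was found by stepwise up/down single intraperitoneal dosing of female SPF ICR mice. Vehicle: ethanol:Cremophor EL:saline 5:5:90. Animals weighed daily and clinically checked twice daily for up to 14 days.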

[3] = tested on: HCT-116 colon cancer xenografts; assay: Tumor growth inhibition of HCT-116 colon cancer xenografts in tumor-bearing nude mice (tumor volume, TGI %, RTV, T/C %); format: in vivo, Balb/c Nude mice; conditions: for T/C % (relative tumor proliferation rate): single-dose intraperitoneal, dosage mg/kg: G3, G4, G8 350, G5, G9 325, G6 300, G7 250;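 for T/C % (relative tumor proliferation rate): control C is the vehicle-treated model control group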
Summary of the method: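 Tumors in HCT-116-inoculated nude mice were sized three times weekly by diameter, with volume V=3/4π(D/2)^3. Significance set at P<0.05.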

[4] = Day 0, G3-G9 groups, single IP dose, Mean±SEM
[5] = Day 4, G3-G9 groups, single IP dose, Mean±SEM
[6] = Day 6, G3-G9 groups, single IP dose, Mean±SEM
[7] = Day 8, G3-G9 groups, single IP dose, Mean±SEM
[8] = Day 11, G3-G9 groups, single IP dose, Mean±SEM
[9] = Day 13, G3-G9 groups, single IP dose, Mean±SEM
[10] = Day 15, G3-G9 groups, single IP dose, Mean±SEM
[11] = Day 18, G3-G9 groups, single IP dose, Mean±SEM
[12] = Day 20, G3-G9 groups, single IP dose, Mean±SEM
[13] = Day 22, G3-G9 groups, single IP dose, Mean±SEM

O=C(Nc1nc(=O)n([C@@H]2O[C@H](CO)[C@@H](O)C2(F)F)cc1Br)OCc1ccccc1 [Compound G7, 5-Br-4-N-(carboxybenzyl)-2′-deoxy-2′,2′-difluorocytidine]
Weight change rate, Day 0 [1, 4]: 0.00 ± 0.00%
Weight of mice, Day 0 [1, 4]: 21.63 ± 1.17 g
weights of animals on Day 4 after administration ([1]; Day 4 (G7: Day 4 and Day 6), p<0.05): significantly reduced
Weight change rate, Day 4 [1, 5]: −12.28 ± 4.78 %
Weight of mice, Day 4 [1, 5]: 18.87 ± 0.09 g
weight loss rate on Day 4 after administration ([1]; Day 4, G4 350 mg/kg, G5 325 mg/kg, G7 250 mg/kg, single IP): 12.28±4.78%
Weight change rate, Day 6 [1, 6]: −4.39 ± 3.60 %
Weight of mice, Day 6 [1, 6]: 20.60 ± 0.32 g
weight loss rate on Day 6 after administration ([1]; Day 6, G7 250 mg/kg, single IP): 4.39±3.6%
Weight change rate, Day 8 [1, 7]: −1.24 ± 2.80%
Weight of mice, Day 8 [1, 7]: 21.30 ± 0.55 g
Weight change rate, Day 11 [1, 8]: 1.86 ± 3.24%
Weight of mice, Day 11 [1, 8]: 21.97 ± 0.59 g
Weight change rate, Day 13 [1, 9]: 5.62 ± 2.15%
Weight of mice, Day 13 [1, 9]: 22.80 ± 0.76 g
Weight change rate, Day 15 [1, 10]: 7.71 ± 1.47%
Weight of mice, Day 15 [1, 10]: 23.27 ± 0.93 g
Weight change rate, Day 18 [1, 11]: 6.51 ± 2.30%
Weight of mice, Day 18 [1, 11]: 23.00 ± 0.90 g
Weight change rate, Day 20 [1, 12]: 5.54 ± 2.07%
Weight of mice, Day 20 [1, 12]: 22.80 ± 1.00 g
Weight change rate, Day 22 [1, 13]: 4.65 ± 2.51%
Weight of mice, Day 22 [1, 13]: 22.60 ± 0.95 g
Day 22 Mortality ([1]; Day 22, single IP dose (mg/kg)): 0%
clinical symptoms ([1]; after single IP dose, compared with model control group): no significant differences in clinical symptoms
dose that could be tolerated (maximum tolerated dose, MTD) [2]: 200 mg/kg
Day 0 (RTV) [3, 4]: 1.00 ± 0.00
Tumor volume, Day 0 [3, 4]: 133.56 ± 10.23 mm^3
T/C % (relative tumor proliferation rate) ([3]; Day 0): 0.00%
Day 4 (TGI %) ([3]; Day 4, G3-G9 groups, single IP dose): 53.12%
Day 4 (RTV) [3, 5]: 0.92 ± 0.08
Tumor volume, Day 4 [3, 5]: 124.90 ± 18.89* mm^3
T/C % (relative tumor proliferation rate) ([3]; Day 4): 48.99%
Day 6 (TGI %) ([3]; Day 6, G3-G9 groups, single IP dose): 78.40%
Day 6 (RTV) [3, 6]: 0.66 ± 0.12
Tumor volume, Day 6 [3, 6]: 91.30 ± 21.79** mm^3
T/C % (relative tumor proliferation rate) ([3]; Day 6): 22.02%
Day 8 (TGI %) ([3]; Day 8, G3-G9 groups, single IP dose): 82.62%
Day 8 (RTV) [3, 7]: 0.66 ± 0.12
Tumor volume, Day 8 [3, 7]: 91.30 ± 21.79*** mm^3
T/C % (relative tumor proliferation rate) ([3]; Day 8): 17.67%
tumor inhibition effect ([3]; Day 8 to Day 13 after single-dose intraperitoneal administration): good tumor inhibition effect
Day 11 (TGI %) ([3]; Day 11, G3-G9 groups, single IP dose): 81.27%
Day 11 (RTV) [3, 8]: 1.10 ± 0.23
Tumor volume, Day 11 [3, 8]: 150.60 ± 38.77** mm^3
T/C % (relative tumor proliferation rate) ([3]; Day 11): 18.54%
Day 13 (TGI %) ([3]; Day 13, G3-G9 groups, single IP dose): 80.80%
Day 13 (RTV) [3, 9]: 1.66 ± 0.10
Tumor volume, Day 13 [3, 9]: 222.86 ± 25.56** mm^3
T/C % (relative tumor proliferation rate) ([3]; Day 13): 19.33%
Day 15 (TGI %) ([3]; Day 15, G3-G9 groups, single IP dose): 72.81%
Day 15 (RTV) [3, 10]: 2.91 ± 0.35
Tumor volume, Day 15 [3, 10]: 384.06 ± 36.79* mm^3
T/C % (relative tumor proliferation rate) ([3]; Day 15): 27.80%
Day 18 (TGI %) ([3]; Day 18, G3-G9 groups, single IP dose): 65.62%
Day 18 (RTV) [3, 11]: 4.86 ± 0.65
Tumor volume, Day 18 [3, 11]: 636.39 ± 30.26* mm^3
T/C % (relative tumor proliferation rate) ([3]; Day 18): 35.32%
Day 20 (TGI %) ([3]; Day 20, G3-G9 groups, single IP dose): 51.28%
Day 20 (RTV) [3, 12]: 7.99 ± 1.70
Tumor volume, Day 20 [3, 12]: 1032.60 ± 127.82 mm^3
T/C % (relative tumor proliferation rate) ([3]; Day 20): 50.40%
Day 22 (TGI %) ([3]; Day 22, G3-G9 groups, single IP dose): 44.07%
Day 22 (RTV) [3, 13]: 11.40 ± 2.93
Tumor volume, Day 22 [3, 13]: 1462.80 ± 246.74 mm^3
T/C % on Day 22 ([3]; Day 22, G4 350 mg/kg, G5 325 mg/kg, G7 250 mg/kg, single IP): 58.62%
T/C % (relative tumor proliferation rate) ([3]; Day 22): 58.62%
relative tumor volume compared with the model control group ([3]; G4 and G5 Day 4 to Day 18, G7 Day 4 to Day 15 (p<0.05-0.01), G9 only Day 4 (p<0.05)): reduced significantly
maximum value of TGI % ([3]; day of maximum: G3 Day 8, G4 Day 11, G5 Day 11, G9 Day 4, G7 Day 8, single IP): 82.62%
minimum value of T/C % ([3]; day of minimum: G4 Day 13, G5 Day 11, G7 Day 8, single IP): 17.67%
